The text below walks through data of publication PMC8836143, “Primary Mode of Action of the Novel Sulfonamide Fungicide against Botrytis cinerea and Field Control Effect on Tomato Gray Mold” (International Journal of Molecular Sciences, 2022).

Data set [1] has as its system B. cinerea resistant to iprodione (HM-3). Description: greenhouse pot test on tomato, iprodione-resistant strain HM-3. It is filed as in vivo, Botrytis cinerea. The method, then:
(§1) The B. cinerea strains, which had resistance to carbendazim (HM-1), diethofencarb (HM-2), and iprodione (HM-3) for greenhouse pot studies, were provided by the Institute of Vegetables and Flowers, Chinese Academy of Agricultural Sciences (Beijing, China).
(§2) The experiments were conducted in the greenhouse of the Institute of Vegetables and Flowers, Chinese Academy of Agricultural Sciences. The maximum and minimum temperatures of the greenhouse were 29 °C and 19 °C, respectively, and the average temperature was 24 °C. B. cinerea strains showing resistance to carbendazim, diethofencarb, and iprodione were cultivated on potato dextrose agar (PDA) plates for 4–5 d at room temperature. Tomato seeds (Ziyu) were sown in ceramic pots (300 mm in diameter) containing 0.6 kg of soil sterilized with formaldehyde (4–5 seeds for each pot). When plants were grown to the five-leaf stage, an aqueous solution of 25% L13 WP (at dilution multiples of 1000 and 2000 times) was sprayed preventatively on the plant surface. […] The severity of the disease was assessed according to a nine-grade classification at 7 d after inoculation, by which time the disease in the untreated control had fully developed.

Data set [2] concerns intact mycelia of B. cinerea. Description: mycelial respiration (oxygen consumption of intact mycelia). The following applies: 25 °C; for R1 (mycelial oxygen uptake post addition of fungicide): R0 173.51; for inhibition at 50 µg/mL / inhibition at 100 µg/mL: Botrytis cinerea, read-out: IR (inhibition of respiration). Type of data set: cell-based, Botrytis cinerea. The method, then:
Mycelial plugs of B. cinerea from 3 days old colony margins were transferred to conical flasks containing 150 mL of PDA liquid medium for shake culture (25 °C, 150 r/min). After 5 days, mycelia were washed three times with 50 mM potassium phosphate buffer (pH 7.2) and resuspended in 0.1 M phosphate buffer (pH 7.2), containing 2% glucose to afford mycelial suspension at a concentration of 50 mg fresh weight of mycelia per milliliter. The mycelial suspension was treated with 50 and 100 μg/mL of L13 and famoxadone, respectively. All measurements were carried out at 25 ± 1 °C. The ratio of the mycelial oxygen consumption was tested by oxygraphy (DW1, Hansatech Instruments Ltd., England), and the inhibition of respiration was calculated using the following formula:IR = (R0 − R1)/R0 × 100(1)
IR: inhibition of respiration (%); R0, R1: the ratio of mycelial oxygen uptake pre and post addition of fungicides (nmol O2/min/mg mycelia).

For data set [3], the system named is B. cinerea resistant to diethofencarb (HM-2). Description: greenhouse pot test on tomato, diethofencarb-resistant strain HM-2. It is filed as in vivo, Botrytis cinerea. The method, then:
as §1, §2

The test system of data set [4] is B. cinerea resistant to carbendazim (HM-1). Description: greenhouse pot test on tomato, carbendazim-resistant strain HM-1. It is filed as in vivo, Botrytis cinerea. On the procedure:
as §1, §2

For another data set, the system named is B. cinerea mycelia. Description: mycelial electrolyte leakage (conductivity of mycelia suspension). It is filed as cell-based, Botrytis cinerea. The following applies: 50 μg/mL; for conductivity of mycelia suspension compared with control mycelia: all treatment times 0-100 h. The method, then: Mycelial discs (5 mm in diameter) of B. cinerea grown on PDA plates were cut from the colony’s margins and placed in PDA liquid medium with 200 r/min shaking for 3 days. The mycelia in the culture medium were collected and washed three times by sterile distilled water and subsequently, filtered and weighed. A stock solution of L13 and commercial fungicide procymidone as a positive control were diluted with sterile distilled water to 50 μg/mL, respectively. After adding 1.0 g of fresh mycelia into different solutions mentioned above, the conductivities of the solutions were measured using the DDS-11C model conductivity detector at 0, 1, 3, 5, 24, 28, 40, 48, 52, 64, 68, 72, 76, 88, 92, and 100 h after treatment. The experiment was repeated twice with three replicates per treatment.

A further data set relates to B. cinerea. On the set-up: method as in PMID 18331796. The following applies: cited from earlier work.
Data set [5] deals with rabbits. Description: eye irritation test. Type of data set: in vivo. The method, then:
(§3) The acute oral and dermal toxicity test on Wistar rats, eye and skin irritation test on rabbits, and Ames mutagenicity test were commissioned by the Institute for the Control of Chemical Toxicity in Tianjin. The bone marrow cell micronucleus assay and testis chromosomal aberration test of mice were commissioned by Tianjin Center for Disease Control and Prevention. All the toxicological tests were carried out according to the Toxicological Test Methods for Pesticide Registration (GB 15670-1995).
(§4) Based on the preliminary experiment, Horn’s method was used to determine the acute oral toxicity of L13. The dosage applied for rats was 464, 1000, 2150, and 4640 mg/kg·BW. For the acute dermal toxicity test, the dosage applied for rats was 2000 mg/kg·BW. For the eye and skin irritation test, rabbits with bodyweight from 2.5 to 3.0 kg were used, and 0.1 and […] of L13 was applied to the eyes and skin, respectively. For the Ames mutagenicity test, 0.05–1.0 mg per dish of L13 was applied, and fenaminosulf (50 μg/dish), 2-aminofluorene (20 μg/dish), and 1,8-dihydroxyanthraquinone (50 μg/dish) were used as the positive controls. For the mouse bone marrow cell micronucleus assay, the dosages applied were 165, 82.5, 41.3, and 8.3 mg/kg·BW, and cyclophosphamide (60 mg/kg·BW) was used as a positive control. […]

Another data set can be described thus: mutagenesis test. On the procedure: as §3, §4
Data set [6] concerns intact mycelia of B. cinerea. The arrangement: method as in earlier work. The note with it: cited from earlier work.
In data set [7] the test system is rabbits. Description: skin irritation test. Type of data set: in vivo. The method, then:
as §3, §4

For a further data set, the system named is Wistar rats. Description: acute oral toxicity. Type of data set: in vivo. The method, then: as §3, §4
A further data set concerns B. cinerea on tomatoes. Description: field efficacy trials against tomato gray mold. Type of data set: in vivo, Botrytis cinerea. The note with it: Yuncheng city; 225 g ai ha^−1; over 2 years. On the procedure: The field efficacy trials of L13 against tomato gray mold were conducted in two locations of Yuncheng, Shanxi Province, and Gaocheng, Hebei Province. The experiments were conducted according to the National Agriculture Industry Standard of “Pesticide-guidelines for the field efficacy trials (I)-Fungicides against gray mold of vegetables” [38]. Tomato Jinpeng No. 1 was used as the experimental cultivar. There were six treatments in each trial, and the area of each plot was 5 × 3 m with four replications (24 plots). When tomato plants were grown to the five-leaf stage, an aqueous solution of L13 50% WP at a rate of 450 and 225 g ai ha^−1 was sprayed onto the plants using a hydraulic knapsack electric sprayer (CD-16B, Chaoda Instrument Co., Ltd., Taizhou, China) with a single cone nozzle operating at a typical working pressure 0.3 MPa. Iprodione 50% WP, or iprodione 25% SC at a rate of 225 and 562.5 g ai ha^−1 were used as positive controls. Three applications were conducted at an interval of 7 d. The disease was assessed according to a nine-grade classification 7 d after the last application.

The test system of a further data set is B. cinerea hyphae. Description: SEM and TEM of mycelial morphology and ultrastructure. It is filed as cell-based, Botrytis cinerea. The following applies: 3 days. On the procedure: B. cinerea mycelial tips (5 mm) from the margins of the actively growing colony on the PDA medium amended with 0, 50, and 100 μg/mL of L13 were cut down after being cultured for 3 days. Then the mycelial tips were treated with 4% glutaraldehyde at 4 °C, then rinsed with 0.1 M phosphate buffer (pH 7.3) and fixed with 1% w/v osmium tetraoxide solution. After being rinsed with 0.1 M phosphate buffer three times, the mycelium block was dehydrated using a series of acetone solutions in the order of concentration: 30%, 50%, 70%, 80%, 90%, and anhydrous acetone. The processes of drying at a critical point, mounting, and gold spraying were completed at last and examined in a scanning electron microscope (S-3400N, Hitachi, Nissei Sanyo, Tokyo, apan) with an accelerating voltage of 18–20 kV.
The mycelial blocks were prepared according to the method given in Section 2.3. After dehydrating and embedding in Epon 112, thin sections were cut and double-stained with uranyl acetate and lead citrate. The grids were examined with a JEOL-1230 (JEOL, Tokyo, Japan) transmission electron microscope.

The mark [8] stands for this setting: dilution multiple 1000, 187.5 g.ai ha^−1.

Molecules are shown by their SMILES. ≈ marks a conversion by molar mass, not a printed value.

In the case of `CC(C)NC(=O)N1CC(=O)N(c2cc(Cl)cc(Cl)c2)C1=O` [iprodione, reference compound], the “Control Effect” value in data set [1] (dilution multiple 1000, 375 g.ai ha^−1) worked out at 2.36%.

With `C[C@@]1(c2ccc(Oc3ccccc3)cc2)OC(=O)N(Nc2ccccc2)C1=O` (racemic) [Famoxadone, famoxadone, reference compound], in [2] (50 μg/mL), the “R1 (mycelial oxygen uptake post addition of fungicide)” value was 115.99 nmol O2/g/min and the inhibition at 50 µg/mL is 33.2%. For the same compound, in data set [2] (100 μg/mL), the “R1 (mycelial oxygen uptake post addition of fungicide)” value is reported as 68.79 nmol O2/g/min and the inhibition at 100 µg/mL was determined as 60.4%.

On to `CCOc1ccc(NC(=O)OC(C)C)cc1OCC` [diethofencarb, reference compound], for which, in data set [3] (dilution multiple 1400, 267.9 g.ai ha^−1), the “Control Effect” value is listed as 76.36%.

With `COC(=O)Nc1nc2ccccc2[nH]1` [carbendazim, reference compound], the “Control Effect” value in data set [4] (dilution multiple 500, 750 g.ai ha^−1) is 29.00%.

`CC12CC1(C)C(=O)N(c1cc(Cl)cc(Cl)c1)C2=O` (stereo not drawn) [procymidone, reference compound]: the “conductivity of mycelia suspension compared with control mycelia” value in the data set with B. cinerea mycelia is “greatly increased”. In addition, the “EC50 against B. cinerea” value with B. cinerea is 2.45 µg/mL (≈ 8.62 µM).

For the compound `O=C1CCCCC1S(=O)(=O)Nc1ccc(Cl)cc1C(F)(F)F` (stereo not drawn) [L13, N-(2-trifluoromethyl-4-chlorphenyl)-2-oxocyclohexyl sulfonamide], the Eye irritation entry in the data set with rabbits [5] is on record as “No irritation”. Besides, in “teratogenesis test”, the Teratogenesis result is “Negative”. Besides, the Mutagenesis entry in “mutagenesis test” is given as “Negative”. Besides, the “R1 (mycelial oxygen uptake post addition of fungicide)” value is on record as 169.93 nmol O2/g/min in [2] (50 μg/mL) and 143.48 nmol O2/g/min in data set [2] (100 μg/mL). For the same compound, the inhibition at 50 µg/mL in data set [2] (50 μg/mL) turned out to be 2.15%. For the same compound, in data set [2] (100 μg/mL), the inhibition at 100 µg/mL came to 17.4%. The “content of DNA and polysaccharide in intact mycelia” value in data set [6] is “reduce the content of the DNA and polysaccharide”. The “Control Effect” value in [1] (setting [8]) was determined as 78.27%; in [4] (setting [8]), 81.36%; in [3] (setting [8]), 92.61%. Besides, the Carcinogenesis entry in the data set “carcinogenesis test” is recorded as “Negative”. Besides, the Skin irritation entry in the data set with rabbits [7] is on record as “No irritation”. In the data set with B. cinerea mycelia, the “electrolyte leakage compared with positive control” value is listed as “more significant electrolyte leakage from hyphae than procymidone”. In the data set on B. cinerea mycelia, the “conductivity of mycelia suspension compared with control mycelia” value is “greatly increased”. In addition, in the data set on B. cinerea, the “EC50 against B. cinerea” value is 2.12 µg/mL (≈ 5.96 µM). Besides, the “Acute oral LD50” value came to 2150 mg/kg·BW in the data set on Wistar rats (female) and 1470 mg/kg·BW with Wistar rats (male). Moreover, the “control effect against B. cinerea on tomatoes” value with B. cinerea on tomatoes is reported as 72–76%. For the same compound, the “TEM ultrastructure of hyphae” value in the data set on B. cinerea hyphae (PDA with 50 μg/mL) is “cell wall exhibited a decomposition trend”; in the data set on B. cinerea hyphae (PDA with 100 μg/mL), “cell wall decomposition”.
